Laboratory results published in patent US20170368104A1, “INDUCTION OF TOLERANCE IN LUNG ALLOGRAFT TRANSPLANTATION” (Washington University, priority 2013, published 2017).

tested on: B6 CD45.1^+ CD4^+ T cells; test: In vitro mixed lymphocyte reaction, CD4+ responders; format: cell-based, mouse; settings: agent added to MLR containing accepting allograft-derived CD8+ T cells
Protocol: In vitro mixed lymphocyte reactions were performed in round bottom 96-well plates using 3×10^5 T cell-depleted Balb/c splenocyte stimulators with 10^5 CFSE-labeled B6 CD45.1^+ CD4^+ or CD8^+ T cell responders and, as indicated, 10^5 CD8^+ T cells isolated from lungs or spleens of immunosuppressed B6 recipients of Balb/c allografts. For some experiments central and effector memory T cells were sorted from lungs of resting mice. T cell responses were evaluated flow cytometrically on day 5. All compounds inhibiting the metabolism of essential amino acids were obtained from Sigma-Aldrich (St. Louis, Mo.) and added to the co-cultures as previously described for the duration of the experiment (41).

| Structure (SMILES) | CD8+ T cell-mediated suppression of CD4+ T lymphocyte proliferation |
| --- | --- |
| Cn1cc(C[C@H](N)C(=O)O)c2ccccc21 [1-methyl-tryptophan] | did not affect proliferation |
| NC(=NCCC[C@H](N)C(=O)O)N[N+](=O)[O-] [L-NNA, NG-nitro-L-Arginine; L-NG-Nitroarginine] | able to attenuate |
| N=C(N)NCCC[C@H](N)C(=O)O [L-arginine] | did not reverse |
| CC(=N)NCCCC[C@H](N)C(=O)O.Cl.Cl [L-nil, N6-(1-iminoethyl)-L-lysine, dihydrochloride] | able to attenuate |
| CCC[C@H](N)C(=O)O [L-novaline] | did not affect proliferation |
